Test results: PubChem BioAssay AID330 (DTP/NCI, 2004)
Where “and” joins values, the source holds several entries; their conditions need not be identical. Equal values may be shown once. Inconclusive results and toxic doses are left out.

Tested on: P388 leukemia ip, CD2F1 mice, survival T/C
Test: NCI In Vivo Anticancer Drug Screen. Data for tumor model P388 Leukemia (intraperitoneal) in CD2F1 (CDF1) mice
Conditions: endpoint: median survival time, higher = longer survival
Method in brief: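 Mice carrying the transplanted tumor received test compound or vehicle. Survival was recorded in each group, and the value is the treated-group measurement divided by that of the vehicle-treated control group.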

[1] = dose: 50.0 mg/kg/injection, schedule: Q01DX009 (ip), vehicle: other
[2] = dose: 50.0 mg/kg/injection, schedule: Q01DX009 (ip), vehicle: saline
[3] = dose: 100.0 mg/kg/injection, schedule: Q01DX009 (ip), vehicle: saline
[4] = dose: 200.0 mg/kg/injection, schedule: Q01DX009 (ip), vehicle: saline
[5] = dose: 12.5 mg/kg/injection, schedule: Q01DX005 (ip), vehicle: Klucel (hydroxypropylcellulose) (HPC)
[6] = dose: 25.0 mg/kg/injection, schedule: Q01DX005 (ip), vehicle: Klucel (hydroxypropylcellulose) (HPC)
[7] = dose: 50.0 mg/kg/injection, schedule: Q01DX005 (ip), vehicle: Klucel (hydroxypropylcellulose) (HPC)
[8] = dose: 50.0 mg/kg/injection, schedule: Q01DX009 (ip), vehicle: saline with Tween-80
[9] = dose: 100.0 mg/kg/injection, schedule: Q01DX009 (ip), vehicle: saline with Tween-80
[10] = dose: 200.0 mg/kg/injection, schedule: Q01DX009 (ip), vehicle: saline with Tween-80

Nc1n[n+](-c2cccc([N+](=O)[O-])c2)no1
T/C (dose: 3.13 mg/kg/injection, schedule: Q01DX009 (ip), vehicle: other): 113 % of control
T/C (dose: 3.13 mg/kg/injection, schedule: Q01DX009 (ip), vehicle: water): 106 % of control
T/C (dose: 6.25 mg/kg/injection, schedule: Q01DX009 (ip), vehicle: other): 113 % of control
T/C (dose: 6.25 mg/kg/injection, schedule: Q01DX009 (ip), vehicle: water): 110 % of control
T/C (dose: 25.0 mg/kg/injection, schedule: Q01DX009 (ip), vehicle: water): 121 % of control
T/C [1]: 113 % of control

O=[N+]([O-])c1cc(NC(=S)SC2CCCCC2)ccc1Cl
T/C (dose: 25.0 mg/kg/injection, schedule: Q01DX009 (ip), vehicle: saline): 107 % of control and 108 % of control
T/C [2]: 100 % of control and 104 % of control and 93 % of control
T/C [3]: 102 % of control and 110 % of control and 90 % of control
T/C [4]: 100 % of control and 104 % of control and 122 % of control

CN(C)[C@@H]1C(=O)C(C(=O)NCNC2(C(=O)O)CCCC2)=C(O)[C@@]2(O)C(=O)C3=C(O)c4c(O)cccc4[C@@](C)(O)[C@H]3C[C@@H]12
T/C [2]: 103 % of control
T/C [3]: 95 % of control
T/C (dose: 100.0 mg/kg/injection, schedule: Q01DX009 (ip), vehicle: suspension in saline): 91 % of control
T/C [4]: 106 % of control
T/C (dose: 200.0 mg/kg/injection, schedule: Q01DX009 (ip), vehicle: suspension in saline): 93 % of control
T/C (dose: 400.0 mg/kg/injection, schedule: Q01DX009 (ip), vehicle: saline): 98 % of control
T/C (dose: 400.0 mg/kg/injection, schedule: Q01DX009 (ip), vehicle: suspension in saline): 111 % of control

NNS(=O)(=O)CCC(NC(=O)OCc1ccccc1)C(=O)OCc1ccccc1 (stereo not given)
T/C (dose: 12.5 mg/kg/injection, schedule: Q01DX009 (ip), vehicle: other): 98 % of control
T/C (dose: 25.0 mg/kg/injection, schedule: Q01DX009 (ip), vehicle: other): 103 % of control
T/C [1]: 94 % of control
T/C (dose: 100.0 mg/kg/injection, schedule: Q01DX009 (ip), vehicle: other): 94 % of control
T/C (dose: 200.0 mg/kg/injection, schedule: Q01DX009 (ip), vehicle: other): 98 % of control

CSc1nc(N)c(C(=O)c2sc(SC)nc2N)s1
T/C [5]: 100 % of control
T/C [6]: 92 % of control
T/C [7]: 90 % of control and 97 % of control

CN(C)c1ccc(N=Nc2ccc([As](=O)(O)O)cc2)cc1
T/C (dose: 0.5 mg/kg/injection, schedule: Q01DX009 (ip), vehicle: saline with Tween-80): 100 % of control
T/C (dose: 1.0 mg/kg/injection, schedule: Q01DX009 (ip), vehicle: saline with Tween-80): 95 % of control

[CH3][Ge]([O][Ge]([CH3])([c]1ccccc1)[c]1ccccc1)([c]1ccccc1)[c]1ccccc1
T/C [2]: 102 % of control
T/C [3]: 93 % of control
T/C [4]: 92 % of control

NC(Cc1cccc2ccccc12)C(=O)O (stereo not given)
T/C [5]: 93 % of control
T/C [6]: 100 % of control
T/C [7]: 102 % of control and 110 % of control

O=c1[nH][nH]c2c1SCc1ccccc1-2
T/C [8]: 110 % of control
T/C [9]: 117 % of control
T/C [10]: 86 % of control

CC(=O)[O][Bi]([c]1ccccc1)[c]1ccccc1
T/C (dose: 3.12 mg/kg/injection, schedule: Q01DX005 (ip), vehicle: Klucel (hydroxypropylcellulose) (HPC)): 106 % of control and 108 % of control
T/C (dose: 6.25 mg/kg/injection, schedule: Q01DX005 (ip), vehicle: Klucel (hydroxypropylcellulose) (HPC)): 108 % of control and 110 % of control
T/C [5]: 103 % of control and 120 % of control
T/C [6]: 118 % of control
T/C [7]: 90 % of control

CCOC(=O)C1(C)C(=O)CC2c3nc4ccccc4cc3CN2C1=O (stereo not given)
T/C (dose: 100.0 mg/kg/injection, schedule: Q01DX009 (ip), vehicle: Klucel (hydroxypropylcellulose) (HPC)): 95 % of control
T/C (dose: 200.0 mg/kg/injection, schedule: Q01DX009 (ip), vehicle: Klucel (hydroxypropylcellulose) (HPC)): 95 % of control
T/C (dose: 400.0 mg/kg/injection, schedule: Q01DX009 (ip), vehicle: Klucel (hydroxypropylcellulose) (HPC)): 104 % of control

CCN(CC)CCCNC(c1ccc(OC)c(OC)c1)C(Cl)(Cl)Cl (stereo not given)
T/C (dose: 60.0 mg/kg/injection, schedule: Q01DX005 (ip), vehicle: saline): 94 % of control
T/C (dose: 120.0 mg/kg/injection, schedule: Q01DX005 (ip), vehicle: saline): 101 % of control

CCOC1c2cc3c(cc2NC(=O)N1C)OCO3 (stereo not given)
T/C (dose: 37.5 mg/kg/injection, schedule: Q01DX009 (ip), vehicle: saline with Tween-80): 97 % of control
T/C (dose: 75.0 mg/kg/injection, schedule: Q01DX009 (ip), vehicle: saline with Tween-80): 94 % of control
T/C (dose: 150.0 mg/kg/injection, schedule: Q01DX009 (ip), vehicle: saline with Tween-80): 100 % of control

C/C=C1/C[N+]2(C)CCc3c([nH]c4ccccc34)C2CC1C(CO)C(=O)OC (stereo not given)
T/C (dose: 12.5 mg/kg/injection, schedule: Q01DX009 (ip), vehicle: saline with Tween-80): 96 % of control
T/C (dose: 25.0 mg/kg/injection, schedule: Q01DX009 (ip), vehicle: saline with Tween-80): 104 % of control
T/C [8]: 98 % of control

CC1CN1P(=O)(N1CC1C)N1CC1C (stereo not given)
T/C (dose: 3.13 mg/kg/injection, schedule: Q04DX003 (ip), vehicle: saline): 104 % of control
T/C (dose: 6.25 mg/kg/injection, schedule: Q04DX003 (ip), vehicle: saline): 109 % of control
T/C (dose: 12.5 mg/kg/injection, schedule: Q04DX003 (ip), vehicle: saline): 109 % of control
T/C (dose: 50.0 mg/kg/injection, schedule: Q04DX003 (ip), vehicle: saline): 222 % of control
T/C (dose: 100.0 mg/kg/injection, schedule: Q04DX003 (ip), vehicle: saline): 86 % of control

NC(CCl)C(=O)O (stereo not given)
T/C (dose: 50.0 mg/kg/injection, schedule: Q01DX005 (ip), vehicle: saline): 100 % of control
T/C (dose: 100.0 mg/kg/injection, schedule: Q01DX005 (ip), vehicle: saline): 100 % of control
T/C (dose: 200.0 mg/kg/injection, schedule: Q01DX005 (ip), vehicle: saline): 100 % of control

CC1(C)CC(COC(=O)c2c3ccccc3c3ccc4cccc5ccc2c3c54)CC(C)(C)N1O
T/C [8]: 98 % of control
T/C [9]: 106 % of control
T/C [10]: 91 % of control

COc1ccc2c(c1O)-c1cccc3c1C(C2)N(CCOCCCl)CC3 (stereo not given)
T/C (dose: 12.5 mg/kg/injection, schedule: Q04DX003 (ip), vehicle: water): 99 % of control
T/C (dose: 25.0 mg/kg/injection, schedule: Q04DX003 (ip), vehicle: water): 107 % of control
T/C (dose: 50.0 mg/kg/injection, schedule: Q04DX003 (ip), vehicle: water): 101 % of control
T/C (dose: 100.0 mg/kg/injection, schedule: Q04DX003 (ip), vehicle: water): 104 % of control

CON=C1C(C)(C)C(=NOC)C1(C)C
T/C [5]: 90 % of control
T/C [6]: 86 % of control
T/C [7]: 99 % of control

COC(=O)COC(=O)C1C(C(N)=O)N(CC(=O)OC)CCN1CC(=O)OC (stereo not given)
T/C (dose: 50.0 mg/kg/injection, schedule: Q01DX005 (ip), vehicle: saline with Tween-80): 103 % of control
T/C (dose: 100.0 mg/kg/injection, schedule: Q01DX005 (ip), vehicle: saline with Tween-80): 103 % of control
T/C (dose: 200.0 mg/kg/injection, schedule: Q01DX005 (ip), vehicle: saline with Tween-80): 103 % of control

CCC(=O)N/C(N)=N\C(N)=S
T/C [7]: 101 % of control
T/C (dose: 100.0 mg/kg/injection, schedule: Q01DX005 (ip), vehicle: Klucel (hydroxypropylcellulose) (HPC)): 96 % of control
T/C (dose: 200.0 mg/kg/injection, schedule: Q01DX005 (ip), vehicle: Klucel (hydroxypropylcellulose) (HPC)): 104 % of control

C=C1C(=O)C2=CC1CCC(=O)C1(C)C(OC(C)=O)CC(OC(C)=O)C(C)(C)C1CC2O (stereo not given)
T/C (dose: 17.5 mg/kg/injection, schedule: Q01DX005 (ip), vehicle: Klucel (hydroxypropylcellulose) (HPC)): 108 % of control
T/C (dose: 35.0 mg/kg/injection, schedule: Q01DX005 (ip), vehicle: Klucel (hydroxypropylcellulose) (HPC)): 109 % of control
T/C (dose: 70.0 mg/kg/injection, schedule: Q01DX005 (ip), vehicle: Klucel (hydroxypropylcellulose) (HPC)): 111 % of control

c1ccc(N=c2cnc3c(ccc4ccccc43)o2)cc1
T/C (dose: 3.75 mg/kg/injection, schedule: Q01DX005 (ip), vehicle: saline with Tween-80): 102 % of control
T/C (dose: 7.5 mg/kg/injection, schedule: Q01DX005 (ip), vehicle: saline with Tween-80): 112 % of control
T/C (dose: 15.0 mg/kg/injection, schedule: Q01DX005 (ip), vehicle: saline with Tween-80): 107 % of control and 116 % of control
T/C (dose: 60.0 mg/kg/injection, schedule: Q01DX005 (ip), vehicle: saline with Tween-80): 115 % of control

O=S(=O)(O)C(I)S(=O)(=O)O
T/C [2]: 91 % of control
T/C [3]: 94 % of control
